Columns and labels:
Format in all cases: biochemical
JAK1 = JAK1 (Homo sapiens, UniProt P23458); assay: JAK kinase activity, homogeneous time-resolved fluorescence (JAK1 reaction system); details: ATP 2 μM, JAK1 protein 0.2 ng/μL; read-out: JAK 1 activity
Method in brief: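 Kinase activity read as the 665 nm/615 nm time-resolved fluorescence ratio (320 nm excitation) after EDTA-containing antibody and XL-615 addition. Reaction ran 1 h at pH 7.0 (Hepes, MgCl2, DTT) with 0.2 ng/μL JAK1 and ATP at 2 μM. IC50 derived by Hill-slope fit.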

JAK2 = JAK2 (Homo sapiens, UniProt O60674); assay: JAK kinase activity, homogeneous time-resolved fluorescence (JAK2 reaction system); details: ATP 2 μM, JAK2 protein 0.01 ng/μL
JAK2, sequence (O60674 whole entry): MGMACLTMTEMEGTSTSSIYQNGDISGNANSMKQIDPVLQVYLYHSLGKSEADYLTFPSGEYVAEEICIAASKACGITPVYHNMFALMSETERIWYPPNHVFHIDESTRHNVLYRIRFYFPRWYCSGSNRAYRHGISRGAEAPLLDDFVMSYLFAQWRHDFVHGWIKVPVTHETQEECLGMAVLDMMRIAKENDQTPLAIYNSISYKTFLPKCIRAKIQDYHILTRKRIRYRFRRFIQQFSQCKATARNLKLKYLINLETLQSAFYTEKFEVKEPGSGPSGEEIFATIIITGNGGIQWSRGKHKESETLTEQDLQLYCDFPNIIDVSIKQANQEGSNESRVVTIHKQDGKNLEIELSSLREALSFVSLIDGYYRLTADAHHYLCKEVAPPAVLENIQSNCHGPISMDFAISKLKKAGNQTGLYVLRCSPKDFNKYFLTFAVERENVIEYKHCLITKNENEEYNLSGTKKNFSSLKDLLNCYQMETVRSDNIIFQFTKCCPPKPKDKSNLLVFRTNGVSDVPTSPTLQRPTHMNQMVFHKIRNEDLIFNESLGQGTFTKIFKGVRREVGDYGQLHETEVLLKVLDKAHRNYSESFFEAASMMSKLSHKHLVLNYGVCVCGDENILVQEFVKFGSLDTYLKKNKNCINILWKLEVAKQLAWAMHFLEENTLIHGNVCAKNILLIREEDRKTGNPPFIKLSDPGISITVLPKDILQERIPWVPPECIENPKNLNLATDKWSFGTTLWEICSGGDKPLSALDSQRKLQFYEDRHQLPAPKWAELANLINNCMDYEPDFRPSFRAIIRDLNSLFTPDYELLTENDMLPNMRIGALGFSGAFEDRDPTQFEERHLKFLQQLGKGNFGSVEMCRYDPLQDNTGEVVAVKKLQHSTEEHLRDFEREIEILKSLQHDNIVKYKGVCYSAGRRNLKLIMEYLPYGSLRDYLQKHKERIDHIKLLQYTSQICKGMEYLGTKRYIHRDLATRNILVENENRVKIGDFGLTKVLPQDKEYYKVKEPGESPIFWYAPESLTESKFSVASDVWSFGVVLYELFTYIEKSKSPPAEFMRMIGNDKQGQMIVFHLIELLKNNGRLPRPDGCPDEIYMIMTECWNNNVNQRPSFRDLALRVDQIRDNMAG
Method in brief: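 IC50 derived by Hill-equation fit of the 665/615 nm time-resolved fluorescence ratio after EDTA-containing detection mix with anti-phosphosubstrate antibody. Preceding 1 h reaction contained 2 μM ATP, 0.01 ng/μL JAK2, substrate, 50 mM Hepes pH 7.0, 5 mM MgCl2, 1 mM DTT.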

JAK3 = target: T1, JAK3 (Homo sapiens, UniProt P52333); assay: JAK kinase activity, homogeneous time-resolved fluorescence (JAK3 reaction system); details: ATP 2 μM, JAK3 protein 0.04 ng/μL; read-out: JAK 3 activity
T1 sequence (P52333 1-1124): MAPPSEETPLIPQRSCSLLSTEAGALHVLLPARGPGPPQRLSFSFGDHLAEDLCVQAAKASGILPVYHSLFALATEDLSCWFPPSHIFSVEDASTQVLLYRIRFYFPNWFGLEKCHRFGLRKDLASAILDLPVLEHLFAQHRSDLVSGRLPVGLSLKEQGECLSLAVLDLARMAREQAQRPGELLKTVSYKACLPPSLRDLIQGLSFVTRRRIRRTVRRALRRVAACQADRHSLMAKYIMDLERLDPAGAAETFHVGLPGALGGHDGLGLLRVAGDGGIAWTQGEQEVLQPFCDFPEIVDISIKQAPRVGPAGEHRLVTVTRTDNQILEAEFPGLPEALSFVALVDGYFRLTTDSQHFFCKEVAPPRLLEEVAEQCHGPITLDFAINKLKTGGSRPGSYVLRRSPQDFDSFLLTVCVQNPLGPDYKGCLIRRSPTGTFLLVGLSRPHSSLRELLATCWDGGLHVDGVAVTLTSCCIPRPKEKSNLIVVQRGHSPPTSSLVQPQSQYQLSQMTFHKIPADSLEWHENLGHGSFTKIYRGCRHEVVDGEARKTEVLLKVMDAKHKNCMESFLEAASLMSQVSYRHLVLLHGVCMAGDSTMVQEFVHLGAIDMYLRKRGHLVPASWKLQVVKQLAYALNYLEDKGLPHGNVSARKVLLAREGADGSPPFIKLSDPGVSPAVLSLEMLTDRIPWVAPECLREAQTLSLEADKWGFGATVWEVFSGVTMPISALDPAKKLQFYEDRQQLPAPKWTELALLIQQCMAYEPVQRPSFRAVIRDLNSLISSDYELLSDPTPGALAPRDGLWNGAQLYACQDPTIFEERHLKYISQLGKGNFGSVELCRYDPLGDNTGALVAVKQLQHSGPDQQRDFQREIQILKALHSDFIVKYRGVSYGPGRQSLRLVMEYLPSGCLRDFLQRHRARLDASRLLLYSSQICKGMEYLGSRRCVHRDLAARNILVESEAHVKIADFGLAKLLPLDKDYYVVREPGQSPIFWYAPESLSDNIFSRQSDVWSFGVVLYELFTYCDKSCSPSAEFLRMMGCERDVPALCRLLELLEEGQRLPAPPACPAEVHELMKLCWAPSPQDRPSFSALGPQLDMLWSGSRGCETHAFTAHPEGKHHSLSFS

TYK2 = TYK2 (Homo sapiens, UniProt P29597); assay: JAK kinase activity, homogeneous time-resolved fluorescence (TYK2 reaction system); details: ATP 2 μM, TYK2 protein 0.2 ng/μL; read-out: TYK 2 activity
TYK2, sequence (P29597 whole entry): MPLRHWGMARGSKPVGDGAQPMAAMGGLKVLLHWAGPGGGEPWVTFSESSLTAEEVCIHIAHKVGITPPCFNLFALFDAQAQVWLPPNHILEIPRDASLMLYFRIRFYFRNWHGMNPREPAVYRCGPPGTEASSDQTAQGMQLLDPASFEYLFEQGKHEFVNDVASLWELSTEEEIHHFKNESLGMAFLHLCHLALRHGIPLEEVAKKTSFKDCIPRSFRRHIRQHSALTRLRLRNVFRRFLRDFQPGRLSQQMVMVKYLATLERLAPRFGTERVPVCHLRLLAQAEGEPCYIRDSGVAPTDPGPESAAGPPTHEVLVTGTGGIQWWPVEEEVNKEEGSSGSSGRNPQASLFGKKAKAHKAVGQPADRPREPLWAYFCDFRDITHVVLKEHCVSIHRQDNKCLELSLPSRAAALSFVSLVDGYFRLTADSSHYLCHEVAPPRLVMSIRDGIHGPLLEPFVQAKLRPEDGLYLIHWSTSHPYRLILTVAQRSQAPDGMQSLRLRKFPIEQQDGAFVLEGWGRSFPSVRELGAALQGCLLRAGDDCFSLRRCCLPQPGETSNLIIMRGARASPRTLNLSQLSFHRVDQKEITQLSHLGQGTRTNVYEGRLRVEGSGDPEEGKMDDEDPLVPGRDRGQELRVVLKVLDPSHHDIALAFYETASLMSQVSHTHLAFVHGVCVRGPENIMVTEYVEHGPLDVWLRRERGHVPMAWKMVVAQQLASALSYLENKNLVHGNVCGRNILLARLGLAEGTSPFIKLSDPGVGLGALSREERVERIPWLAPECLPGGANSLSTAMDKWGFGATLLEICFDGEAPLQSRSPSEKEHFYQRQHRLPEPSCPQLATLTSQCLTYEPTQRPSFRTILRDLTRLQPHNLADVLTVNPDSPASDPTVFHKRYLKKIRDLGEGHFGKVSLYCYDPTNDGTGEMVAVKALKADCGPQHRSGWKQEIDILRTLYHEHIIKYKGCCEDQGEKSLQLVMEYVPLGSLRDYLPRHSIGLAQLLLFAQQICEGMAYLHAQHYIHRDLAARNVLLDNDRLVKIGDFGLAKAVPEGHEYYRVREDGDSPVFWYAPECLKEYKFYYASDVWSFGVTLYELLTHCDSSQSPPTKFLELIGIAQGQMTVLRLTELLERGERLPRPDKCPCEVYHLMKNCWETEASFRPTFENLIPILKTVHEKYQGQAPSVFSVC
Method in brief: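 Activity read as the 665 nm/615 nm ratio after adding EDTA-containing detection mix with anti-phospho-substrate antibody and XL-615. Beforehand, 0.2 ng/μL TYK2, 2 μM ATP, substrate and compound reacted 1 h in pH 7.0 Hepes buffer with MgCl2 and DTT. IC50 fitted with Hill-slope equation.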

JAK1, sequence (P23458 whole entry): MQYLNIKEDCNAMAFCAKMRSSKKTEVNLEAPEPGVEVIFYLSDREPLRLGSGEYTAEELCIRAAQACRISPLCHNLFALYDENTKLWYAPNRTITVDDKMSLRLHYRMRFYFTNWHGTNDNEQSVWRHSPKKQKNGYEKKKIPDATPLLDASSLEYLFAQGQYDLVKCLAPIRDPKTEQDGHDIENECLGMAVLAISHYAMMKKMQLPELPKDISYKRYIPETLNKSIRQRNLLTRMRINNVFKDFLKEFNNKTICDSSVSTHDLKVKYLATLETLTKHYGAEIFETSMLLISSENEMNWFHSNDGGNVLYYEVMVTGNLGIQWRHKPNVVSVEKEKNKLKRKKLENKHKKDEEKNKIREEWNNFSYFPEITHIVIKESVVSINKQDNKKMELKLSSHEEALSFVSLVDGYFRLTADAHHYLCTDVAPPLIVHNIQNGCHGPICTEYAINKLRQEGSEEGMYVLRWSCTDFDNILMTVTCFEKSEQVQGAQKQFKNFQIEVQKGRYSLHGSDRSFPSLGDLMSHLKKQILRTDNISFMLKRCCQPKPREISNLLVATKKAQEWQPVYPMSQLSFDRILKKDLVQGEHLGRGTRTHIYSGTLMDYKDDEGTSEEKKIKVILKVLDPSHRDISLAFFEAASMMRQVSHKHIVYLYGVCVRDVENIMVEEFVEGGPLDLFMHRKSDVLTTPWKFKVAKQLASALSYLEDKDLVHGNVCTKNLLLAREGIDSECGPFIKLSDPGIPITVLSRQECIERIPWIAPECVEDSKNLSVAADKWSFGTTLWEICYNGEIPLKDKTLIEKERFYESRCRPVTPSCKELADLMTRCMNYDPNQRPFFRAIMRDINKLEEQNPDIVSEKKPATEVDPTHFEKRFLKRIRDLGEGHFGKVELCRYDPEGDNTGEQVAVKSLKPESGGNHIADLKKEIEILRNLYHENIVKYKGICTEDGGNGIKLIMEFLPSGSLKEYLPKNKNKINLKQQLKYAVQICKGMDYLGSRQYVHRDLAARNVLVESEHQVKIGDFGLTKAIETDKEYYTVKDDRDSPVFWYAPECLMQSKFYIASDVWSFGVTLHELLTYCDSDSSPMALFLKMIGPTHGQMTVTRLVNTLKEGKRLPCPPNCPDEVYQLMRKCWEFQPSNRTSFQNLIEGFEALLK

Row | Structure (SMILES) | IC50 (JAK1) [nM] | IC50 (JAK2) [nM] | IC50 (JAK3) [nM] | IC50 (TYK2) [nM]
1 | O=C1NCCCCOCc2cc(ccc2N2CCCC2)Nc2nccc(n2)-c2ccc1cc2F [Example 34, 1^2-fluoro-4^4-(pyrrolidin-1-)-6-oxa-3,11-diaza-2(4,2)-pyrimidina-1(1,4),4(1,3)-dibenzenacyclododecaphan-12-one] | 101 to 1000 | 101 to 1000 | 11 to 100 | 1000 to 10000
2 | CC1CCOCc2cc(ccc2OC2CCCC2)Nc2nccc(n2)-c2ccc(cc2N)C(=O)NC1 (stereo not shown) [Example 184, 1^2-amino-4^4-(cyclopentoxy)-9-meth-yl-6-oxa-3,11-diaza-2(4,2)-pyrimi-dina-1(1,4),4(1,3)-dibenzenacyclo-dodecaphan-12-one] | 1000 to 10000 | 101 to 1000 | < 10 | 1000 to 10000
3 | O=C1NCCCCOCc2cccc(c2)Nc2nccc(n2)-c2ccc1cc2F [Example 12, 1^2-fluoro-6-oxa-3,11-diaza-2(4,2)-py-rimidina-1(1,4),4(1,3)-dibenzenacy-clododecaphan-12-one] | 101 to 1000 | 101 to 1000 | 11 to 100 | 1000 to 10000
4 | O=C1NCCCCOCc2cc(cc(Cl)c2N2CCOCC2)Nc2nccc(n2)-c2ccc1cc2 [Example 8, 4^5-chloro-4^4-morpholin-6-oxa-3,11-diaza-2(4,2)-pyrimidina-1(1,4),4(1,3)-dibenzenacyclododecaphan-12-one] | 101 to 1000 | 11 to 100 | 11 to 100 | 101 to 1000
5 | O=C1NCCCCOCc2cc(ccc2OCC2CCCC2)Nc2nccc(n2)-c2ccc1cc2[N+](=O)[O-] [Example 104, 4^4-(cyclopentylmethoxy)-1^2-nitro-6-oxa-3,11-diaza-2(4,2)-pyrimidina-1(1,4),4(1,3)-dibenzenacyclodo-decaphan-12-one] | > 10000 | 1000 to 10000 | 101 to 1000 | > 10000
6 | Nc1cc2ccc1-c1ccnc(n1)Nc1ccc(OC3CC3)c(c1)COCCCCNC2=O [Example 74, 1^2-amino-4^4-cyclopropoxy-6-oxa-3,11-diaza-2(4,2)-pyrimidina-1(1,4),4(1,3)-dibenzenacyclododecaphan-12-one] | 1000 to 10000 | 101 to 1000 | < 10 | 1000 to 10000
7 | CC1CCNC(=O)c2ccc(c([N+](=O)[O-])c2)-c2ccnc(n2)Nc2ccc(OCC3CCOC3)c(c2)COC1 (stereo not shown) [Example 135, 8-methyl-1^2-nitro-4^4-((tetrahydro-furan-3-yl)methoxy)-6-oxa-3,11-diaza-2(4,2)-pyrimidina-1(1,4),4(1,3)-dibenzenacyclododecaphan-12-one] | 1000 to 10000 | 1000 to 10000 | 101 to 1000 | > 10000
8 | Nc1cc2ccc1-c1ccnc(n1)Nc1ccc(OCC3CCCC3)c(c1)COCCCCNC2=O [Example 105, 1^2-amino-4^4-(cyclopentylmethoxy)-6-oxa-3,11-diaza-2(4,2)-pyrimidi-na-1(1,4),4(1,3)-dibenzenacyclodo-decaphan-12-one] | 1000 to 10000 | 101 to 1000 | < 10 | > 10000
9 | Nc1cc2ccc1-c1ccnc(n1)Nc1cc(F)c(OC3CCOCC3)c(c1)COCCCCNC2=O [Example 84, 1^2-amino-4^5-fluoro-4^4-((tetrahydro-2H-pyran-4-yl)oxy)-6-oxa-3,11-dia-za-2(4,2)-pyrimidina-1(1,4),4(1,3)-dibenzenacyclododecaphan-12-one] | 101 to 1000 | 101 to 1000 | 11 to 100 | 1000 to 10000
10 | Nc1cc2ccc1-c1ccnc(n1)Nc1ccc(OC3CCC3)c(c1)COCCCCNC2=O [Example 79, 1^2-amino-4^4-cyclobutoxy-6-oxa-3,11-diaza-2(4,2)-pyrimidina-1(1,4),4(1,3)-dibenzenacyclododecaphan-12-one] | 101 to 1000 | 101 to 1000 | 11 to 100 | 1000 to 10000
11 | O=C1NCCCCOCc2cc(ccc2O)Nc2nccc(n2)-c2ccc1cc2[N+](=O)[O-] [Example 81, 4^4-hydroxy-1-nitro-6-oxa-3,11-diaza-2(4,2)-pyrimidina-1(1,4),4(1,3)-di-benzenacyclododecaphan-12-one] | 1000 to 10000 | 1000 to 10000 | 101 to 1000 | > 10000
12 | Nc1cc2ccc1-c1ccnc(n1)Nc1ccc(N3CCOCC3)c(c1)COCCCCCCNC2=O [Example 57, 1^2-amino-4^4-morpholin-6-oxa-3,13-diaza-2(4,2)-pyrimidina-1(1,4),4(1,3)-dibenzenacyclotetradecaphan-14-one] | 1000 to 10000 | 101 to 1000 | 11 to 100 | 101 to 1000

The next lines start with the values.

Row | IC50 (JAK1) [nM] | IC50 (JAK2) [nM] | IC50 (JAK3) [nM] | IC50 (TYK2) [nM] | Structure (SMILES)
13 | 101 to 1000 | 101 to 1000 | 11 to 100 | 1000 to 10000 | O=C1Nc2ccc(cc2)OCc2cc(ccc2F)Nc2nccc(n2)-c2ccc1cc2O [Example 216, 4^4-fluoro-1^2-hydroxy-6-oxa-3,8-dia-za-2(4,2)-pyrimidina-1,7(1,4),4(1,3)-tribenzenacyclononaphane-9-one]
14 | 1000 to 10000 | 1000 to 10000 | 1000 to 10000 | > 10000 | COc1cccc(F)c1COc1ccc2cc1COCCCCNC(=O)c1ccc(c([N+](=O)[O-])c1)-c1ccnc(n1)N2 [Example 171, 4^4-((2-fluoro-6-methoxybenzyl)oxy)-1^2-nitro-6-oxa-3,11-diaza-2(4,2)-pyrimidina-1(1,4),4(1,3)-di-benzenacyclododecaphan-12-one]
15 | > 10000 | > 10000 | 11 to 100 | > 10000 | Nc1cc2ccc1-c1ccnc(n1)Nc1ccc(OCC3CC(F)(F)C3)c(c1)COc1ccc(cc1)NC2=O [Example 210, 1^2-amino-4^4-((3,3-difluorocyclobutyl)methoxy)-6-oxa-3,8-diaza-2(4,2)-pyrimidina-1,7(1,4),4(1,3)-tribenz-enacyclononaphane-9-one]
16 | 1000 to 10000 | 101 to 1000 | < 10 | 1000 to 10000 | COc1cc(F)cc(F)c1COc1ccc2cc1COCCCCNC(=O)c1ccc(c(N)c1)-c1ccnc(n1)N2 [Example 183, 1^2-amino-4^4-((2,4-difluoro-6-meth-oxybenzyl)oxy)-6-oxa-3,11-diaza-2(4,2)-pyrimidina-1(1,4),4(1,3)-di-benzenacyclododecaphan-12-one]
17 | 1000 to 10000 | 101 to 1000 | < 10 | > 10000 | Nc1cc2ccc1-c1ccnc(n1)Nc1ccc(OCc3cccc4c3OCC4)c(c1)COCCCCNC2=O [Example 148, 1^2-amino-4^4-((2,3-dihydrobenzofu-ran-7-yl)methoxy)-6-oxa-3,11-dia-za-2(4,2)-pyrimidina-1(1,4),4(1,3)-dibenzenacyclododecaphan-12-one]
18 | 101 to 1000 | 1000 to 10000 | 11 to 100 | 1000 to 10000 | Nc1cc2ccc1-c1ccnc(n1)Nc1ccc(OC3CC3)c(c1)COc1ccc(cc1F)NC2=O [Example 199, 1^2-amino-4^4-cyclopropoxy-7^2-fluoro-6-oxa-3,8-diaza-2(4,2)-pyrimidina-1,7(1,4),4(1,3)-tribenzenacyclonona-phane-9-one]
19 | 1000 to 10000 | 1000 to 10000 | 101 to 1000 | 1000 to 10000 | COc1cc(F)cc(F)c1COc1ccc2cc1COCC[C@H](C)CNC(=O)c1ccc(c(N)c1)-c1ccnc(n1)N2 [Example 191, (S)-1^2-amino-4^4-((2,4-difluoro-6-methoxybenzyl)oxy)-9-methyl-6-x-xa-3,11-diaza-2(4,2)-pyrimidina-1(1,4),4(1,3)-dibenzenacyclo-dodecaphan-12-one]
